Results taken from PubChem BioAssay (NCI).
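Abbreviation: GI50, concentration required for 50% inhibition of growth. Definition used: TGI = concentration required for complete inhibition of growth.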

Experiments:
Assay in all cases: NCI anticancer screen, dose series, 384-well format
M14 melanoma = tested on: M14 melanoma
MDA-MB-468 breast = tested on: MDA-MB-468 breast
NCI-H226 lung = tested on: NCI-H226 lung
HCT-15 colon = tested on: HCT-15 colon
MDA-MB-435 melanoma = tested on: MDA-MB-435 melanoma
OVCAR-4 ovarian = tested on: OVCAR-4 ovarian
786-0 renal = tested on: 786-0 renal
SF-268 CNS = tested on: SF-268 CNS
CAKI-1 renal = tested on: CAKI-1 renal
U251 glioblastoma = tested on: U251 glioblastoma
UACC-62 melanoma = tested on: UACC-62 melanoma
RXF 393 renal = tested on: RXF 393 renal
MOLT-4 leukemia = tested on: MOLT-4 leukemia
HT29 colon = tested on: HT29 colon
OVCAR-5 ovarian = tested on: OVCAR-5 ovarian
HOP-92 NSCLC = tested on: HOP-92 NSCLC
ACHN renal = tested on: ACHN renal
SK-MEL-28 melanoma = tested on: SK-MEL-28 melanoma
PC-3 prostate = tested on: PC-3 prostate
T-47D breast = tested on: T-47D breast
SK-MEL-2 melanoma = tested on: SK-MEL-2 melanoma
SNB-75 CNS = tested on: SNB-75 CNS
OVCAR-3 ovarian = tested on: OVCAR-3 ovarian
NCI/ADR-RES ovarian = tested on: NCI/ADR-RES ovarian
HL-60(TB) leukemia = tested on: HL-60(TB) leukemia
NCI-H522 lung = tested on: NCI-H522 lung
RPMI-8226 leukemia = tested on: RPMI-8226 leukemia
SR leukemia = tested on: SR leukemia
NCI-H322M lung = tested on: NCI-H322M lung
SF-539 CNS = tested on: SF-539 CNS
HCT-116 colon = tested on: HCT-116 colon
SK-MEL-5 melanoma = tested on: SK-MEL-5 melanoma
NCI-H460 NSCLC = tested on: NCI-H460 NSCLC
MDA-MB-231 breast = tested on: MDA-MB-231 breast
CCRF-CEM leukemia = tested on: CCRF-CEM leukemia
A549 NSCLC = tested on: A549 NSCLC
NCI-H23 lung = tested on: NCI-H23 lung
SK-OV-3 ovarian = tested on: SK-OV-3 ovarian
MCF7 breast = tested on: MCF7 breast
TK-10 renal = tested on: TK-10 renal
BT-549 breast = tested on: BT-549 breast
SF-295 CNS = tested on: SF-295 CNS
A498 renal = tested on: A498 renal
K-562 leukemia = tested on: K-562 leukemia
SW-620 colon = tested on: SW-620 colon
EKVX NSCLC = tested on: EKVX NSCLC
SN12C renal = tested on: SN12C renal

Nc1nc(OCc2cc(Br)cs2)c2[nH]cnc2n1 showed a GI50 (M14 melanoma) of 47.9 µM, a TGI (M14 melanoma) greater than 100 µM and a GI50 (MDA-MB-468 breast) of 16.9 µM. For the same compound, the TGI (MDA-MB-468 breast) was 47.5 µM, the GI50 (NCI-H226 lung) was 45.9 µM and the TGI (NCI-H226 lung) was 96.9 µM. The GI50 (HCT-15 colon) was 33.9 µM, the TGI (HCT-15 colon) was greater than 100 µM and the GI50 (MDA-MB-435 melanoma) was 43.1 µM. The TGI (MDA-MB-435 melanoma) was greater than 100 µM, the GI50 (OVCAR-4 ovarian) was greater than 78.7 µM and the TGI (OVCAR-4 ovarian) was greater than 100 µM. For the same compound, the GI50 ([…]-0 renal) was 27.3 µM, the TGI (786-0 renal) was greater than 100 µM and the GI50 (SF-268 CNS) was 32.1 µM. For the same compound, the TGI (SF-268 CNS) was greater than 84.9 µM, the GI50 (CAKI-1 renal) was 25.1 µM and the TGI (CAKI-1 renal) was 86.6 µM. For the same compound, the GI50 (U251 glioblastoma) was 31.3 µM, the TGI (U251 glioblastoma) was greater than 95.1 µM and the GI50 (UACC-62 melanoma) was 31.2 µM. For the same compound, the TGI (UACC-62 melanoma) was greater than 100 µM, the GI50 (RXF 393 renal) was 24.5 µM and the TGI (RXF 393 renal) was 62.7 µM. It also gave a GI50 (MOLT-4 leukemia) of 17.3 µM, a TGI (MOLT-4 leukemia) of 37.5 µM and a GI50 (HT29 colon) of 46 µM. It also gave a TGI (HT29 colon) greater than 100 µM, a GI50 (OVCAR-5 ovarian) greater than 95.3 µM and a TGI (OVCAR-5 ovarian) greater than 100 µM. It also gave a GI50 (HOP-92 NSCLC) of 40.8 µM, a TGI (HOP-92 NSCLC) greater than 100 µM and a GI50 (ACHN renal) of 30.2 µM. The TGI (ACHN renal) was greater than 100 µM, the GI50 (SK-MEL-28 melanoma) was greater than 100 µM and the TGI (SK-MEL-28 melanoma) was greater than 100 µM. It also gave a GI50 (PC-3 prostate) of 74 µM, a TGI (PC-3 prostate) greater than 100 µM and a GI50 (T-47D breast) of 23.4 µM. The TGI (T-47D breast) was 63.5 µM, the GI50 (SK-MEL-2 melanoma) was 35.5 µM and the TGI (SK-MEL-2 melanoma) was 73.6 µM. It also gave a GI50 (SNB-75 CNS) of 29.7 µM, a TGI (SNB-75 CNS) of 85.4 µM and a GI50 (OVCAR-3 ovarian) of 61.8 µM. The TGI (OVCAR-3 ovarian) was greater than 100 µM, the GI50 (NCI/ADR-RES ovarian) was 53.7 µM and the TGI (NCI/ADR-RES ovarian) was greater than 100 µM. The GI50 (HL-60(TB) leukemia) was 18 µM, the TGI (HL-60(TB) leukemia) was 35.8 µM and the GI50 (NCI-H522 lung) was 27.6 µM. It also gave a TGI (NCI-H522 lung) greater than 77 µM, a GI50 (RPMI-8226 leukemia) of 20.4 µM and a TGI (RPMI-8226 leukemia) of 40.4 µM. The GI50 (SR leukemia) was 8.96 µM, the TGI (SR leukemia) was 25.2 µM and the GI50 (NCI-H322M lung) was 30.7 µM. For the same compound, the TGI (NCI-H322M lung) was 80.3 µM, the GI50 (SF-539 CNS) was 44.2 µM and the TGI (SF-539 CNS) was greater than 100 µM. It also gave a GI50 (HCT-116 colon) of 38.4 µM, a TGI (HCT-116 colon) greater than 100 µM and a GI50 (SK-MEL-5 melanoma) of 40.9 µM. The TGI (SK-MEL-5 melanoma) was greater than 100 µM, the GI50 (NCI-H460 NSCLC) was 40.3 µM and the TGI (NCI-H460 NSCLC) was greater than 100 µM. It also gave a GI50 (MDA-MB-231 breast) of 40.7 µM, a TGI (MDA-MB-231 breast) greater than 100 µM and a GI50 (CCRF-CEM leukemia) of 19.4 µM. It also gave a TGI (CCRF-CEM leukemia) of 40.3 µM, a GI50 (A549 NSCLC) of 42.6 µM and a TGI (A549 NSCLC) greater than 100 µM. The GI50 (NCI-H23 lung) was 42.4 µM, the TGI (NCI-H23 lung) was greater than 100 µM and the GI50 (SK-OV-3 ovarian) was 29.1 µM. It also gave a TGI (SK-OV-3 ovarian) of 74.7 µM, a GI50 (MCF7 breast) of 32.6 µM and a TGI (MCF7 breast) greater than 100 µM. For the same compound, the GI50 (TK-10 renal) was 30.5 µM, the TGI (TK-10 renal) was greater than 100 µM and the GI50 (BT-549 breast) was 21.8 µM. The TGI (BT-549 breast) was 53.5 µM, the GI50 (SF-295 CNS) was 48.7 µM and the TGI (SF-295 CNS) was greater than 100 µM. It also gave a GI50 (A498 renal) of 30.3 µM, a TGI (A498 renal) greater than 100 µM and a GI50 (K-562 leukemia) of 27.8 µM. For the same compound, the TGI (K-562 leukemia) was greater than 100 µM, the GI50 (SW-620 colon) was 67.4 µM and the TGI (SW-620 colon) was greater than 100 µM. For the same compound, the GI50 (EKVX NSCLC) was 39.9 µM, the TGI (EKVX NSCLC) was greater than 100 µM and the GI50 (SN12C renal) was 29 µM. For the same compound, the TGI (SN12C renal) was greater than 100 µM.
